In ChEMBL document CHEMBL2163239, “Inhibitors of human immunodeficiency virus type 1 (HIV-1) attachment 6. Preclinical and human pharmacokinetic profiling of BMS-663749, a phosphonooxymethyl prodrug of the HIV-1 attachment inhibitor 2-(4-benzoyl-1-piperazinyl)-1-(4,7-dimethoxy-1H-pyrrolo[2,3-c]pyridin-3-yl)-2-oxoethanone …” (J Med Chem, 2012):
Active and inactive are the calls of the source. The calls are words filed in the database; no cut-off is given here.

Legend:
Homo sapiens = assay: Toxicity in HIV 1-infected human assessed as adverse events at 1800 mg, po bid for 8 days measured upto 14 days; format: organism-based; conditions: in vivo
[1] = tested on: Human immunodeficiency virus 1; assay: Antiviral activity against HIV 1-infected human assessed as reduction in viral load at 1800 mg, po bid for 8 days measured upto 14 days; format: functional, organism-based
[2] = Lipophilicity, log P of compound in octanol-PBS mixture at pH 6.5 by HPLC-UV analysis; format: physicochemical
[3] = Permeability across human Caco2 cells at pH 6.5; format: ADME, cell-based; conditions: Caco-2, pH 6.5, read-out: permeability
[4] = Cmax in high fat fed healthy human at 800 mg, po administered as capsule with high fat meal; format: ADME, organism-based; set-up: dose 800 mg, route oral; conditions: in vivo
[5] = Tmax in high fat fed healthy human at 800 mg, po administered as capsule with high fat meal; format: ADME, organism-based; conditions: in vivo
[6] = AUC (infinity) in high fat fed healthy human at 800 mg, po administered as capsule with high fat meal; format: ADME, organism-based; set-up: dose 800 mg, time infinity, route oral; conditions: plasma
[7] = Half life in high fat fed healthy human at 800 mg, po administered as capsule with high fat meal; format: ADME, organism-based; conditions: in vivo
[8] = Plasma concentration in high fat fed healthy human at 800 mg, po administered as capsule with high fat meal measured after 12 hrs; format: ADME, organism-based
[9] = Dissociation constant, pKa of compound; format: physicochemical

COc1ncc(OC)c2c(C(=O)C(=O)N3CCN(C(=O)c4ccccc4)CC3)c[nH]c12
Activity (Homo sapiens): Non-toxic
Activity [1]: Active
logD [2]: 1.5
Papp [3]: > 10 ×10⁻⁶ cm/s
Cmax [4]: 4100 ng/mL
Tmax [5]: 4 h
AUC(0-inf) [6]: 21200 ng·h/mL
half-life [7]: 14 h
concentration at 12 h [8]: 175 ng/mL
pKa [9]: 2.6
